According to patent US8940724B2, “Quinoline derivitives and their uses” (Amgen Inc., priority 2009, dated 2015):

These compounds were tested against T1, PI3Kδ (Homo sapiens, UniProt O00329) (assay: PI3Kδ Alphascreen assay).
T1 construct: Full length p110 subunits of PI3k α, β and δ, N-terminally labeled with polyHis tag; polyHis (N); made in house; host or cells: Sf9 insect cells (baculovirus)
Type: biochemical

T1 sequence (O00329 whole entry): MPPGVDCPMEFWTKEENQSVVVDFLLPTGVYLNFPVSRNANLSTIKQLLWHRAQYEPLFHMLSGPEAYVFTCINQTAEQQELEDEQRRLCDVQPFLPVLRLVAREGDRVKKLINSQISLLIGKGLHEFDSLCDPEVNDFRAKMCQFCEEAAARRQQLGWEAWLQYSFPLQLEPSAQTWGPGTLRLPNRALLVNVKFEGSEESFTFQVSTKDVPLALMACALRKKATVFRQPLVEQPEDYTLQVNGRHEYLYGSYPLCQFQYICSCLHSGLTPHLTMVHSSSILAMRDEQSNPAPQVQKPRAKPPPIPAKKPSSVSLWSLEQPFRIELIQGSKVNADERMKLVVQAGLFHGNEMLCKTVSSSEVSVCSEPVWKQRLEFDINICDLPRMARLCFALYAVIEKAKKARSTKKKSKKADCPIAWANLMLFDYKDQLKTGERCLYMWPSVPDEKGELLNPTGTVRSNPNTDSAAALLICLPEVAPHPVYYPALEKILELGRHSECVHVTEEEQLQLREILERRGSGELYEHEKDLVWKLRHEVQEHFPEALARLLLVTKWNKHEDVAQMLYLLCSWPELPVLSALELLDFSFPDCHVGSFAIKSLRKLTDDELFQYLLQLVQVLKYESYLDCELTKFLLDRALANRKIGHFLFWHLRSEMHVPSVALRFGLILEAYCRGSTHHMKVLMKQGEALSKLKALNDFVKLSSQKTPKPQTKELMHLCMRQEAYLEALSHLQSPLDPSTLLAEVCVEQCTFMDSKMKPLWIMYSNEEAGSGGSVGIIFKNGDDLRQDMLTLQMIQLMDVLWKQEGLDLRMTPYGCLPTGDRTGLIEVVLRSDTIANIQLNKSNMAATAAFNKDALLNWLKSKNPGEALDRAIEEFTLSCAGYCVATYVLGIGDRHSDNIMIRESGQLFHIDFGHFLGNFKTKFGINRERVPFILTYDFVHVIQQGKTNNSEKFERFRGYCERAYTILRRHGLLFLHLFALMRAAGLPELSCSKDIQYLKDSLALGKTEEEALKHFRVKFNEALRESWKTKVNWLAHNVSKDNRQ
T1 sequence (P27986 whole entry partner): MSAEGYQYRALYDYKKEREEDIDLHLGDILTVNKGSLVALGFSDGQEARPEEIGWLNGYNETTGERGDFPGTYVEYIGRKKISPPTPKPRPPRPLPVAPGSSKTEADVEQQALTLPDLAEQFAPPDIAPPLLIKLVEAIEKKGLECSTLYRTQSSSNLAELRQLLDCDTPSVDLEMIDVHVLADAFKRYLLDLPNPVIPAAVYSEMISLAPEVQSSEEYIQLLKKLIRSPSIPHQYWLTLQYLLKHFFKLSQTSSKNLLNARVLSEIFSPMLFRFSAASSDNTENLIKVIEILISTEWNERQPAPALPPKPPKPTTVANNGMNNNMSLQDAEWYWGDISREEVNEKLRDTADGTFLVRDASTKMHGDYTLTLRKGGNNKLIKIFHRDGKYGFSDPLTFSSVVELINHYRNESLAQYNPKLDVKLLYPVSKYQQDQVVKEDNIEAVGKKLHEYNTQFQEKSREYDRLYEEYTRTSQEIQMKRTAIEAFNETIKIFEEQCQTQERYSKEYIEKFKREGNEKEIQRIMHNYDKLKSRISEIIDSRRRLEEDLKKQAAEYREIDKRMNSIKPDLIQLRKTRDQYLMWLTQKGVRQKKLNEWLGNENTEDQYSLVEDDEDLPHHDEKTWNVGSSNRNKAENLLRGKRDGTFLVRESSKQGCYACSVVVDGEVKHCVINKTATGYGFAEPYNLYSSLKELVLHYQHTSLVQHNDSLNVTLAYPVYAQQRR

| SMILES | Ki |
| --- | --- |
| Cc1c(-c2ccccc2S(C)(=O)=O)nc2cc(F)cc(F)c2c1Nc1cncc(N2CCOCC2)c1 [5,7-difluoro-3-methyl-2-(2-(methylsulfonyl)phenyl)-N-(5-(4-morpholinyl)-3-pyridinyl)-4-quinolinamine] | 0.00324 µM |
| COc1cncc(-c2ncc(N3CCOCC3)cc2Nc2c(C)c(-c3cc(C)ccn3)nc3c(C#N)cccc23)c1 [4-((5′-methoxy-5-(4-morpholinyl)-2,3′-bipyridin-3-yl)amino)-3-methyl-2-(4-methyl-2-pyridinyl)-8-quinolinecarbonitrile] | 0.233 µM |
| Cc1c(N2CCN(S(=O)(=O)c3cccnc3)CC2)nc2cc(F)cc(F)c2c1Nc1cncc(N2CCOCC2)c1 [5,7-difluoro-3-methyl-N-(5-(4-morpholinyl)-3-pyridinyl)-2-(4-(3-pyridinylsulfonyl)-1-piperazinyl)-4-quinolinamine] | 0.0675 µM |
| Cc1c(N2CCN(C(=O)NC(C)C)CC2)nc2cc(F)cc(F)c2c1Nc1cncc(N2CCOCC2)c1 [4-(5,7-difluoro-3-methyl-4-((5-(4-morpholinyl)-3-pyridinyl)-amino)-2-quinolinyl)-N-(1-methylethyl)-1-piperazinecarboxamide] | 0.0506 µM |
| CCN1CCN(c2nc3cc(F)cc(F)c3c(Nc3cc(N4CCOCC4)cnc3N3CCOCC3)c2C)CC1=O [4-(4-((2,5-di-4-morpholinyl-3-pyridinyl)amino)-5,7-difluoro-3-methyl-2-quinolinyl)-1-ethyl-2-piperazinone] | 0.00129 µM |
| Cc1c(N2CCN(S(=O)(=O)C3CCCC3)CC2)nc2cc(F)cc(F)c2c1Nc1cncc(N2CCOCC2)c1 [2-(4-(cyclopentylsulfonyl)-1-piperazinyl)-5,7-difluoro-3-methyl-N-(5-(4-morpholinyl)-3-pyridinyl)-4-quinolinamine] | 0.051 µM |
| Cc1c(N2CCN(C(=O)OC(C)C)CC2)nc2cc(F)cc(F)c2c1Nc1cncc(N2CCOCC2)c1 [1-methylethyl 4-(5,7-difluoro-3-methyl-4-((5-(4-morpholinyl)-3-pyridinyl)amino)-2-quinolinyl)-1-piperazinecarboxylate] | 0.0388 µM |
| Cc1c(N2CCNCC2)nc2cc(F)cc(F)c2c1Nc1cncc(N2CCOCC2)c1 [5,7-difluoro-3-methyl-N-(5-(4-morpholinyl)-3-pyridinyl)-2-(1-piperazinyl)-4-quinolinamine] | 0.0871 µM |
| Cc1c(N2CCN(C(=O)C3CCCC3)CC2)nc2cc(F)cc(F)c2c1Nc1cncc(N2CCOCC2)c1 [2-(4-(cyclopentylcarbonyl)-1-piperazinyl)-5,7-difluoro-3-methyl-N-(5-(4-morpholinyl)-3-pyridinyl)-4-quinolinamine] | 0.042 µM |
| Cc1c(N2CCN(C(=O)c3cccnc3)CC2)nc2cc(F)cc(F)c2c1Nc1cncc(N2CCOCC2)c1 [5,7-difluoro-3-methyl-N-(5-(4-morpholinyl)-3-pyridinyl)-2-(4-(3-pyridinylcarbonyl)-1-piperazinyl)-4-quinolinamine] | 0.343 µM |
| Cc1c(-c2ccccc2[S@+](C)[O-])nc2cc(F)cc(F)c2c1Nc1cncc(N2CCOCC2)c1 [5,7-difluoro-3-methyl-2-(2-((S)-methylsulfinyl)phenyl)-N-(5-(4-morpholinyl)-3-pyridinyl)-4-quinolinamine] | 0.00389 µM |
| CCN1CCN(c2nc3cc(F)cc(F)c3c(Nc3cncc(N4CCOCC4)c3)c2C)CC1 [2-(4-ethyl-1-piperazinyl)-5,7-difluoro-3-methyl-N-(5-(4-morpholinyl)-3-pyridinyl)-4-quinolinamine] | 0.0153 µM |
| Cc1c(-c2cc(OC(F)(F)F)ccc2S(C)(=O)=O)nc2cc(F)cc(F)c2c1Nc1cncc(N2CCOCC2)c1 [5,7-difluoro-3-methyl-2-(2-(methylsulfonyl)-5-(trifluoromethoxy)phenyl)-N-(5-(4-morpholinyl)-3-pyridinyl)-4-quinolinamine] | 0.00418 µM |
| Cc1c(-c2ccccn2)nc2cc(F)cc(F)c2c1Nc1cncc(C2CCOCC2)c1 [5,7-difluoro-3-methyl-2-(2-pyridinyl)-N-(5-(tetrahydro-2H-pyran-4-yl)-3-pyridinyl)-4-quinolinamine] | 0.209 µM |
| Cc1c(N2CCN(S(C)(=O)=O)CC2)nc2cc(F)cc(F)c2c1Nc1cncc(N2CCOCC2)c1 [5,7-difluoro-3-methyl-2-(4-(methylsulfonyl)-1-piperazinyl)-N-(5-(4-morpholinyl)-3-pyridinyl)-4-quinolinamine] | 0.0455 µM |
| Cc1ccnc(-c2nc3cc(F)cc(F)c3c(Nc3cncc(N4CCOCC4)c3)c2C)c1 [5,7-difluoro-3-methyl-2-(4-methyl-2-pyridinyl)-N-(5-(4-morpholinyl)-3-pyridinyl)-4-quinolinamine] | 0.0192 µM |
| CCOc1ccc(-c2nc3cc(F)cc(F)c3c(Nc3cncc(N4CCOCC4)c3)c2C)cn1 [2-(6-ethoxy-3-pyridinyl)-5,7-difluoro-3-methyl-N-(5-(4-morpholinyl)-3-pyridinyl)-4-quinolinamine] | 0.291 µM |
| Cc1c(N2CCN(C(=O)c3cnco3)CC2)nc2cc(F)cc(F)c2c1Nc1cncc(N2CCOCC2)c1 [5,7-difluoro-3-methyl-N-(5-(4-morpholinyl)-3-pyridinyl)-2-(4-(1,3-oxazol-5-ylcarbonyl)-1-piperazinyl)-4-quinolinamine] | 0.048 µM |
| Cc1c(N2CCN(C(C)C)CC2)nc2cc(F)cc(F)c2c1Nc1cncc(N2CCOCC2)c1 [5,7-difluoro-3-methyl-2-(4-(1-methylethyl)-1-piperazinyl)-N-(5-(4-morpholinyl)-3-pyridinyl)-4-quinolinamine] | 0.0113 µM |
| COc1cc(-c2nc3cc(F)cc(F)c3c(Nc3cncc(N4CCOCC4)c3)c2C)ccn1 [5,7-difluoro-2-(2-methoxy-4-pyridinyl)-3-methyl-N-(5-(4-morpholinyl)-3-pyridinyl)-4-quinolinamine] | 0.15 µM |
| Cc1ccc(-c2nc3cc(F)cc(F)c3c(Nc3cncc(N4CCOCC4)c3)c2C)cn1 [5,7-difluoro-3-methyl-2-(6-methyl-3-pyridinyl)-N-(5-(4-morpholinyl)-3-pyridinyl)-4-quinolinamine] | 0.0191 µM |
| Cc1c(N2CCC[C@@H]2C(=O)N(C)C)nc2cc(F)cc(F)c2c1Nc1cncc(N2CCOCC2)c1 [1-(5,7-difluoro-3-methyl-4-((5-(4-morpholinyl)-3-pyridinyl)-amino)-2-quinolinyl)-N,N-dimethyl-D-prolinamide] | 0.0103 µM |
| Cc1c(N2CCC[C@H]2C(=O)O)nc2cc(F)cc(F)c2c1Nc1cncc(N2CCOCC2)c1 [1-(5,7-difluoro-3-methyl-4-((5-(4-morpholinyl)-3-pyridinyl)-amino)-2-quinolinyl)-L-proline] | 0.00937 µM |

Continued, values first:

| Ki | SMILES |
| --- | --- |
| 0.185 µM | COC(=O)N1CCN(c2nc3cc(F)cc(F)c3c(Nc3cncc(N4CCOCC4)c3)c2C)C[C@H]1C [methyl (2R)-4-(5,7-difluoro-3-methyl-4-((5-(4-morpholinyl)-3-pyridinyl)amino)-2-quinolinyl)-2-methyl-1-piperazinecarboxylate] |
| 0.012 µM | Cc1c(N2CCN(C)CC2)nc2cc(F)cc(F)c2c1Nc1cc(N2CCOCC2)cnc1N1CCOCC1 [N-(2,5-di-4-morpholinyl-3-pyridinyl)-5,7-difluoro-3-methyl-2-(4-methyl-1-piperazinyl)-4-quinolinamine] |
| 0.0351 µM | Cc1ccnc(-c2nc3cc(F)ccc3c(Nc3cc(N4CCOCC4)cnc3N3CCOCC3)c2C)c1 [N-(2,5-di-4-morpholinyl-3-pyridinyl)-7-fluoro-3-methyl-2-(4-methyl-2-pyridinyl)-4-quinolinamine] |
| 0.00239 µM | Cc1ccnc(-c2nc3c(Cl)cccc3c(Nc3cncc(N4CCOCC4)c3)c2C)c1 [8-chloro-3-methyl-2-(4-methyl-2-pyridinyl)-N-(5-(4-morpholinyl)-3-pyridinyl)-4-quinolinamine] |
| 0.0675 µM | Cc1c(-c2ccc(N3CCOCC3)nc2)nc2cc(F)cc(F)c2c1Nc1cc(N2CCOCC2)cnc1N1CCOCC1 [N-(2,5-di-4-morpholinyl-3-pyridinyl)-5,7-difluoro-3-methyl-2-(6-(4-morpholinyl)-3-pyridinyl)-4-quinolinamine] |
| 0.121 µM | COc1ncccc1-c1ncc(N2CCOCC2)cc1Nc1c(C)c(-c2ccccn2)nc2cc(F)cc(F)c12 [N-(5,7-difluoro-3-methyl-2-(2-pyridinyl)-4-quinolinyl)-2′-methoxy-5-(4-morpholinyl)-2,3′-bipyridin-3-amine] |
| 0.00125 µM | Cc1c(-c2ccccn2)nc2cc(F)cc(F)c2c1Nc1cc(N2CCOCC2)cnc1-c1ccc(OC(F)F)cc1 [N-(2-(4-(difluoromethoxy)phenyl)-5-(4-morpholinyl)-3-pyridinyl)-5,7-difluoro-3-methyl-2-(2-pyridinyl)-4-quinolinamine] |
| 0.00157 µM | Cc1c(-c2cc([C@@H](C)O)ccc2S(C)(=O)=O)nc2cc(F)cc(F)c2c1Nc1cncc(N2CCOCC2)c1 [(1R)-1-(3-(5,7-difluoro-3-methyl-4-((5-(4-morpholinyl)-3-pyridinyl)amino)-2-quinolinyl)-4-(methylsulfonyl)phenyl)-ethanol] |
| 0.00949 µM | Cc1ccnc(-c2nc3c(Cl)cccc3c(Nc3cc(N4CCOCC4)cnc3N3CCOCC3)c2C)c1 [8-chloro-N-(2,5-di-4-morpholinyl-3-pyridinyl)-3-methyl-2-(4-methyl-2-pyridinyl)-4-quinolinamine] |
| 0.00319 µM | COc1ccc(-c2ccc(N3CCOCC3)cc2Nc2c(C)c(-c3ccccn3)nc3cc(F)cc(F)c23)cn1 [5,7-difluoro-N-(2-(6-methoxy-3-pyridinyl)-5-(4-morpholinyl)-phenyl)-3-methyl-2-(2-pyridinyl)-4-quinolinamine] |
| 0.0557 µM | Cc1c(N2CCN(C(=O)C3CCOCC3)CC2)nc2cc(F)cc(F)c2c1Nc1cncc(N2CCOCC2)c1 [5,7-difluoro-3-methyl-N-(5-(4-morpholinyl)-3-pyridinyl)-2-(4-(tetrahydro-2H-pyran-4-ylcarbonyl)-1-piperazinyl)-4-quinolinamine] |
| 0.0385 µM | COc1ccc(-c2ccc(N3CCOCC3)cc2Nc2c(C)c(-c3ccccn3)nc3cc(F)cc(F)c23)cc1 [5,7-difluoro-N-(4′-methoxy-4-(4-morpholinyl)-2-biphenylyl)-3-methyl-2-(2-pyridinyl)-4-quinolinamine] |
| 0.00923 µM | COC(=O)N1CCN(c2nc3cc(F)cc(F)c3c(Nc3cncc(N4CCOCC4)c3)c2C)CC1 [methyl 4-(5,7-difluoro-3-methyl-4-((5-(4-morpholinyl)-3-pyridinyl)amino)-2-quinolinyl)-1-piperazinecarboxylate] |
